Ends that are not written are not given here.
B1: carboxyl-truncated HMGB1: Human HMGB1 mutant in which the carboxy terminus was deleted, SEQ ID NO:19 (protein)
chain: MGKGDPKKPTGKMSSYAFFVQTCREEHKKKHPDASVNFSEFSKKCSERWKTMSAKEKGKFEDMAKADKARYEREMKTYIPPKGETKKKFKDPNAPKRLPSAFFLFCSEYRPKIKGEHPGLSIGDVAKKLGEMWNNTAADDKQPYEKKAAKLKEKYEKDIAAYRAKGKPDAAKKGVVKAEKSK

System: RAW 264.7 cells
Experiment: TNF release from RAW 264.7 cells (L929 cytotoxicity bioassay)
Assay type: cell-based, murine
Details: for TNF release by synthetic peptide fragment of B box: no polymyxin B
Experimental: Murine macrophage-like RAW 264.7 cells (American Type Culture Collection, Rockville, Md.) were cultured in RPMI 1640 medium (Life Technologies, Grand Island N.Y.) supplemented with 10% fetal bovine serum (Gemini, Catabasas, Calif.), penicillin and streptomycin (Life Technologies) and were used at 90% confluence in serum-free Opti-MEM I medium (Life Technologies, Grand Island, N.Y.). […] Polymyxin B was not used in experiments of synthetic peptide studies.
TNF release was measured by a standard murine fibroblast L929 (ATCC, American Type Culture Collection, Rockville, Md.) cytotoxicity bioassay (Bianchi et al., Journal of Experimental Medicine 183:927-936, 1996) with the minimum detectable concentration of 30 pg/ml. Recombinant mouse TNF was obtained from R&D system Inc., (Minneapolis, Minn.). Murine fibroblast L929 cells (ATCC) were cultured in DMEM (Life Technologies, Grand Island, N.Y.) supplemented with 10% fetal bovine serum (Gemini, Catabasas, Calif.), penicillin (50 units/ml) and streptomycin (50 μg/ml) (Life Technologies) in a humidified incubator with 5% CO2.
The effect of the mutants on TNF release from Murine macrophage-like RAW 264.7 cells (ATCC) was carried out as follows. RAW 264.7 cells were cultured in RPMI 1640 medium (Life Technologies, Grand Island N.Y.) supplemented with 10% fetal bovine serum (Gemini, Catabasas, Calif.), penicillin and streptomycin (Life Technologies). Polymyxin (Sigma, St. Louis, Mo.) was added at 100 units/ml to suppress the activity of any contaminating LPS. Cells were incubated with 1 μg/ml of full length (wild-type) HMGB1 and each HMGB1 mutant protein in Opti-MEM I medium for 8 hours, and conditioned supernatants (containing TNF which had been released from the cells) were collected and TNF released from the cells was measured by a standard murine fibroblast L929 (ATCC) cytotoxicity bioassay (Bianchi et al., supra) with the minimum detectable concentration of 30 pg/ml. Recombinant mouse TNF was obtained from R & D Systems Inc., (Minneapolis, Minn.) and used as control in these experiments. Data in FIG. 1 are all presented as mean+SEM unless otherwise indicated. (N=6-10).
To further examine the effect of HMGB1 B box on cytokine production, varying amounts of HMGB1 B box were evaluated for the effects on TNF, IL-1 B, and IL-6 production in murine macrophage-like RAW 264.7 cells. Conditioned media were harvested and measured for TNF, IL-1β and IL-6 levels. TNF levels were measured as described herein, and IL-1β and IL-6 levels were measured using the mouse IL-1β and IL-6 enzyme-linked immunosorbent assay (ELISA) kits (R&D System Inc., Minneapolis, Minn.) and N>5 for all experiments.
The kinetics of B box-induced TNF release was also examined. TNF release and TNF mRNA expression was measured in RAW 264.7 cells induced by B box polypeptide or GST tag polypeptide only used as a control (vector) (10 μg/ml) for 0 to 48 hours. Supernatants were analyzed for TNF protein levels by an L929 cytotoxicity assay (N=3-5) as described herein. For mRNA measurement, cells were plated in 100 mm plate and treated in Opti-MEM I medium containing B box polypeptide or the vector alone for 0, 4, 8, or 24 hours, as indicated in FIG. 2D. The vector only sample was assayed at the 4 hour time point. Cells were scraped off the plate and total RNA was isolated by RNAzol B method in accordance with the manufacturer's instructions (Tel-Test “B”, Inc., Friendswood, Tex.). TNF (287 bp) was measured by RNase protection assay (Ambion, Austin, Tex.). Equal loading and the integrity of RNA was verified by ethidium bromide staining of the RNA sample on agarose-formaldehyde gel. […] TNF mRNA expression was maximal at 4 hours and decreased at 8 and 24 hours. […] A similar study was carried out measuring TNF protein released from RAW 264.7 cells 0, 4, 8, 24, 32 or 48 hours after administration of B box or vector only (GST tag), using the L929 cytotoxicity assay described herein. […] Data are representative of three separate experiments. […]

Molecule | TNF release by synthetic peptide fragment of B box (peptide 10 μg/ml, 10 hours) | TNF stimulating activity relative to full length B box and HMGB1 (peptide 10 μg/ml, 10 hours) | TNF release (1 μg/ml protein, 8 hours, RAW 264.7 cells)
30-49: Synthetic peptide fragment, amino acids 30-49 of the HMGB1 B box (SEQ ID NO:20) (PGLSIGDVAKKLGEMWNNTA) | did not induce TNF release | – | –
45-64: Synthetic peptide fragment, amino acids 45-64 of the HMGB1 B box (SEQ ID NO:20) (WNNTAADDKQPYEKKAAKLK) | did not induce TNF release | – | –
60-74: Synthetic peptide fragment, amino acids 60-74 of the HMGB1 B box (SEQ ID NO:20) (AAKLKEKYEKDIAAY) | did not induce TNF release | – | –
16-25: Synthetic peptide fragment, amino acids 16-25 of the HMGB1 B box (SEQ ID NO:20) (LFCSEYRPKI) | did not induce TNF release | – | –
fkdpnapkrlpsafflfcse (FKDPNAPKRLPSAFFLFCSE; not fully specified; printed as fkdpnapkrlpsafflfcse) [1-20-mer] | TNF-stimulating activity was retained | less potent than either the full length synthetic B box (1-74-mer), or full length HMGB1 | –
B1 | – | – | significantly stimulated TNF release
